# Results as given in ChEMBL document CHEMBL1201862, “PubChem BioAssay data set” (2004).
# Active and inactive are the calls of the source. No stated cut-off is given here; in the data, active = IC50 of 10 µM or less and inactive = more.
# Key:
# Type in all cases: functional
# [1] = biological target: T1, Neuropeptides B/W receptor type 1 (Homo sapiens, UniProt P48145); assay: GPR7 antagonist potency, late-stage follow-up, cell-based, fluorescence, dose response, set 5 (AID 588566)
# T1 sequence (P48145 whole entry): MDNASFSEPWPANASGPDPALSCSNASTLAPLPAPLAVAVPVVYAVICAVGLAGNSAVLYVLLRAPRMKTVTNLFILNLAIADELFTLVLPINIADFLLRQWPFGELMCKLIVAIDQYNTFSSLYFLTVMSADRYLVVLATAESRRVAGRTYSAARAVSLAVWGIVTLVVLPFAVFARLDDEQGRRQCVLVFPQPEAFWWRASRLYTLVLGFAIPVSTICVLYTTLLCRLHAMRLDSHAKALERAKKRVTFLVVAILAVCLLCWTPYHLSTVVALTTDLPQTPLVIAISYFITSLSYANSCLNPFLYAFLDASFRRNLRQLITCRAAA
# [2] = biological target: T2, Melanin-concentrating hormone receptor 1 (Homo sapiens, UniProt Q99705); assay: Late-stage fluorescence-based counterscreen for antagonists of the G-protein coupled receptor 7 (GPR7): cell-based dose response assay to identify antagonists of the melanin-concentrating hormone receptor 1 (MCHR1) Set 5.
# [3] = biological target: T2, Melanin-concentrating hormone receptor 1; assay: Late-stage fluorescence-based counterscreen for antagonists of the G-protein coupled receptor 7 (GPR7): cell-based dose response assay to identify antagonists of the melanin-concentrating hormone receptor 1 (MCHR1) Set 6.
# [4] = biological target: T1, Neuropeptides B/W receptor type 1; assay: GPR7 antagonist potency, late-stage follow-up, cell-based, fluorescence, dose response, set 6 (AID 588583)
# T2 sequence (Q99705 whole entry): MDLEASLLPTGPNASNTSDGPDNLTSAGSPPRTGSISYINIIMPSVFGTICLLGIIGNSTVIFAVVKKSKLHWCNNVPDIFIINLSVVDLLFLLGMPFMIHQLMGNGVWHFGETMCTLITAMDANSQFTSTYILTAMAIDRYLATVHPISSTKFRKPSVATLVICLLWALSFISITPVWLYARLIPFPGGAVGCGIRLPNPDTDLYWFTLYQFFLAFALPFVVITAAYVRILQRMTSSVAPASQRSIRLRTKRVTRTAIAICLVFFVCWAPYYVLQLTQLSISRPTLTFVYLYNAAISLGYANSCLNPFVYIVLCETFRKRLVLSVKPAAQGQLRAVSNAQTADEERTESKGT
IC50 [1],IC50 [2],IC50 [3],IC50 [4],Structure (SMILES)
~6.06 µM (active),4.44 µM (active),,,COc1ccc(S(=O)(=O)c2c(Cl)cnn(Cc3cccc4ccccc34)c2=O)cc1
,,4.72 µM (active),4.72 µM (active),CCc1c(C(C#N)c2ccccc2)cnn(Cc2cccc3ccccc23)c1=O (centres undefined)
